Literature values, collected in patent publication US20040074447A1, “Methods of reducing incidence of stillborn pigs by using progesterone receptor antagonists” (priority 2002, published 2004).

Key:
[1] = relative to propranolol; cited from earlier work
swine = conditions: oral, 5 or 10 mg/kg BW; cited from earlier work
sheep = conditions: 5 or 10 mg/kg BW; cited from earlier work

Row | SMILES | membrane stabilizing potential, less than that of propranolol [1] | interval from oral administration to birth of the first pig (swine) | interval from oral administration to birth of lambs (sheep)
1 | CC(C)NCC(O)COc1cccc2[nH]c3ccccc3c12 (stereo not drawn) [carazolol] | 13 fold | – | –
2 | C[C@]1(O)CC[C@H]2[C@@H]3CC[C@@]45O[C@]4(C)C(O)=C(C#N)C[C@]5(C)[C@H]3CC[C@@]21C [Epostane] | – | about 34 hr | 33 h
